# Legend:
# [1] = 4-plate assay, anxiolytic activity (Boissier et al.); format: in vivo; conditions: Mus musculus, ip; minimum lowest dose which increases locomotor activity of punished mice; i.p.; read-out: Anxiolytic Activity MED
# Method: The compounds of this invention display especially anxiolytic and anticonvulsive activities. In order to study the anxiolytic effect, the compounds were tested in the 4-plate assay according to the method by Boissier et al., Eur. J. Pharmacol. 4:145-150 ([…]). The table indicates the minimum lowest dose (MED) which increases the locomotor activity of the punished mice after i.p. treatment.
# [2] = system: benzodiazepine receptor; test: inhibition of 3H-flunitrazepam binding in live brain, in vivo (mice); conditions: normally i.p., 3H-flunitrazepam i.v. after 15 min
# [3] = molecular target: benzodiazepine receptors; test: displacement of 3H-flunitrazepam binding, in vitro (rat brain membranes); conditions: 3H-flunitrazepam 1.0 nM, 0° C.
SMILES,minimal effective dose [1] [mg/kg],Inhibition of 3H-Flunitrazepam Binding ED50 in vivo [2] [mg/kg],Inhibition of 3H-Flunitrazepam Binding IC50 in vitro [3] [ng/mL]
COCc1c(C(=O)OC(C)C)ncc2[nH]c3ccc(Oc4ccc(Br)cn4)cc3c12,3.13,2.7,0.75
CCc1noc(-c2cc3c(cn2)[nH]c2cccc(Oc4ncccn4)c23)n1,3.13,2.8,0.28

# Source: US4877792A, “Heteroaryloxy-beta-carboline derivatives, their preparation and their use as medicinal agents” (Schering Aktiengesellschaft, priority 1986, dated 1989)
